Assay results taken from US12180221B2, “Compounds and uses thereof” (JANSSEN PHARMACEUTICA NV, priority 2018, dated 2024).

What was measured:
human SCD1 = target: T1, human SCD1 (Homo sapiens, UniProt O00767); assay: Yeast growth assay, strain expressing human SCD1 as the sole desaturase (reduced growth as surrogate for SCD inhibition); type: cell-based; settings: growth (OD600) after 40 h at 30° C.
T1 construct: expressed in transfected cells; host or cells: yeast strain with the OLE1 gene deleted, carrying a plasmid (grown in SD-Ura)
T1 sequence (O00767 1-359): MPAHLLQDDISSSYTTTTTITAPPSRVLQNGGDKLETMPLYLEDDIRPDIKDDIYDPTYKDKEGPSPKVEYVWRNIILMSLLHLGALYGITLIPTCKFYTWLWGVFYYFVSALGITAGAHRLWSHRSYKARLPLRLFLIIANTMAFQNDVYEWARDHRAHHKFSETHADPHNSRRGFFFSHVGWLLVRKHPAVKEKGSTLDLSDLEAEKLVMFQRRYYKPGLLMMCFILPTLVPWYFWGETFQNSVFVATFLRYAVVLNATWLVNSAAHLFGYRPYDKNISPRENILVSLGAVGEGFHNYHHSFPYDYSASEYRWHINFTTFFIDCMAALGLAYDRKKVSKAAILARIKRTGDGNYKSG

human SCD5 = target: T2, human SCD5 (Homo sapiens, UniProt Q86SK9); assay: Yeast growth assay, strain expressing human SCD5 as the sole desaturase (reduced growth as surrogate for SCD inhibition); type: cell-based; settings: growth (OD600) after 40 h at 30° C.
T2 construct: expressed in transfected cells; host or cells: yeast strain with the OLE1 gene deleted, carrying a plasmid (grown in SD-Ura)
T2 sequence (Q86SK9 1-330): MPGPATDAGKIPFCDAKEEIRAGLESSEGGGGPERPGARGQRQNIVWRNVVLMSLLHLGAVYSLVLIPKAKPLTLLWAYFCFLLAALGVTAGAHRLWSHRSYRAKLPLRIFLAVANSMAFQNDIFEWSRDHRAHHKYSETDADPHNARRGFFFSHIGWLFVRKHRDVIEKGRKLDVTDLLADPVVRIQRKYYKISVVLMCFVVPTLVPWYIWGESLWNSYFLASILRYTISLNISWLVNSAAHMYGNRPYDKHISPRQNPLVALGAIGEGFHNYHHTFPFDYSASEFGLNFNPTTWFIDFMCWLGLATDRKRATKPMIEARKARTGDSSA

Row | Compound | IC50 (human SCD1) [µM] | IC50 (human SCD5) [µM]
1 | CN1N=C(C(=O)Nc2ncc(Cc3cccc(F)c3)s2)CCC1=O [Compound 221, N-(5-(3-fluorobenzyl)thiazol-2-yl)-1-methyl-6-oxo-1,4,5,6-tetrahydropyridazine-3-carboxamide] | > 45 | > 45
2 | CN1N=C(c2nc3cc(Cc4cccc(Cl)c4)cnc3[nH]2)CCC1=O [Compound 255] | > 45 | 
3 | Cn1cc(C(=O)Nc2ccc(COc3cccc(Cl)c3)cn2)ccc1=O [Compound 263] |  | 0.17
4 | Cc1ccc(Cc2ccc(C(=O)Nc3ccc(=O)n(C)n3)nc2)cc1C [Compound 312] | 1.82 | 0.03
5 | CC1(C)CN(C(=O)c2cccc(Cc3ccc(F)cc3)n2)CCO1 [Compound 339] | > 45 | 17.7
6 | O=C(Nc1ccc(Cc2cccc(F)c2)cn1)c1cc[nH]c(=O)n1 [Compound 425] | > 45 | > 45
7 | O=C(Nc1ccc(Cc2cccc(F)c2)cn1)c1cnc2[nH]c(=O)oc2c1 [Compound 463] | > 45 | > 45
8 | Cn1cc(C(=O)Nc2ccc(Cc3ccc(F)c(F)c3)cn2)ncc1=O [Compound 673] | 3.1 | 0.36
